Columns and labels:
[1] = target: Neuronal acetylcholine receptor; alpha3/beta4 (Homo sapiens, UniProt P30926+P32297); assay: Displacement of [3H]epibatidine from human alpha3beta4 nAChR in IMR32 cells; type: cell-based, IMR-32
[2] = target: Neuronal acetylcholine receptor subunit alpha-7 (Rattus norvegicus, UniProt Q05941); assay: Displacement of [125I]alpha-bungarotoxin from rat alpha7 nAChR in GH4C1 cells; type: cell-based, GH4-C1
[3] = target: Neuronal acetylcholine receptor; alpha4/beta2 (Rattus norvegicus, UniProt P09483+P12390); assay: Displacement of [3H]nicotine from alpha4beta2 nAChR in Sprague-Dawley rat brain membrane; type: cell membranes
Chain of Neuronal acetylcholine receptor; alpha4/beta2 (P09483 whole entry): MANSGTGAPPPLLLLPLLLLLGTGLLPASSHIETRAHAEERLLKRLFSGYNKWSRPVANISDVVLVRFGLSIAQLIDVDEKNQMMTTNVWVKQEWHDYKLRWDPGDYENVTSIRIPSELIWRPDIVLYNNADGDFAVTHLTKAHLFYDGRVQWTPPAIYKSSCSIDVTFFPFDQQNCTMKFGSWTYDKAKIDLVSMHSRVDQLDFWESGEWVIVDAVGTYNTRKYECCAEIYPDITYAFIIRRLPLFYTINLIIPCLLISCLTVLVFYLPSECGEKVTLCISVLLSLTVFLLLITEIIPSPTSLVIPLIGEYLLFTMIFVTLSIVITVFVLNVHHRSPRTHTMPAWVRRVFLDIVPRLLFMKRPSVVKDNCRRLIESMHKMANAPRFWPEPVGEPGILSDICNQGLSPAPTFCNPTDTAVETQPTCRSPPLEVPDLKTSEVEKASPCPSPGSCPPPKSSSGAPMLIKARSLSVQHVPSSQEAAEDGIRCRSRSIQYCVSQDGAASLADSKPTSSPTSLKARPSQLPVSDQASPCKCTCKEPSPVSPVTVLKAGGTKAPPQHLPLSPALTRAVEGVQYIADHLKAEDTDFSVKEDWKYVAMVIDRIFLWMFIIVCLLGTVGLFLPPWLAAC
Chain of Neuronal acetylcholine receptor; alpha4/beta2 (P12390 whole entry): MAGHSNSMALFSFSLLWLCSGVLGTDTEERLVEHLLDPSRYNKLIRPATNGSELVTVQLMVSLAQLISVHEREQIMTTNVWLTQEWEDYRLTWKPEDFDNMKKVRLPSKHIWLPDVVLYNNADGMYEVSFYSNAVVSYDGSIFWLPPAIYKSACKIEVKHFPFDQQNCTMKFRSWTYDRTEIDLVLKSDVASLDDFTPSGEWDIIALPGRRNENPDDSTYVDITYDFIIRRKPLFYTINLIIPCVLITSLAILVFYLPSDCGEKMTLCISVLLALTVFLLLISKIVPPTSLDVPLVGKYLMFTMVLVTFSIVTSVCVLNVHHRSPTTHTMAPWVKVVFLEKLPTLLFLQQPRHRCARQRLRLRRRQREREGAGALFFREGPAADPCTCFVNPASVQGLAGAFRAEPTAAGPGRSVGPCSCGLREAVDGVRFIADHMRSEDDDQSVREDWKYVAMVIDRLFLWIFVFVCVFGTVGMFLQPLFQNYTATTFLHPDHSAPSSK

Chain of Neuronal acetylcholine receptor subunit alpha-7 (Q05941 whole entry): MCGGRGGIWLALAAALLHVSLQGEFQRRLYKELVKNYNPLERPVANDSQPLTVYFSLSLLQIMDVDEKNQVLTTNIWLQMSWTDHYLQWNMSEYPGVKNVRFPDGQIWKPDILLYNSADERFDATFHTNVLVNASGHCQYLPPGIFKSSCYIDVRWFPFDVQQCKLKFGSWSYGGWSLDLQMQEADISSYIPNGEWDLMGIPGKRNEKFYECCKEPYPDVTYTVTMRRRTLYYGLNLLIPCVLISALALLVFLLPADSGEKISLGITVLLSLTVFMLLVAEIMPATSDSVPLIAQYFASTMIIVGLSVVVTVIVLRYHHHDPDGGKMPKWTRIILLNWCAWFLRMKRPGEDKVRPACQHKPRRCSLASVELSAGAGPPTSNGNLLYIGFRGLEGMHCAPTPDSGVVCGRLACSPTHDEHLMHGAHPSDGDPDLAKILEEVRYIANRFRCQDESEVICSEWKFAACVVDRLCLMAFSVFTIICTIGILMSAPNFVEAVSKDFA
Chain of Neuronal acetylcholine receptor; alpha3/beta4 (P30926 whole entry): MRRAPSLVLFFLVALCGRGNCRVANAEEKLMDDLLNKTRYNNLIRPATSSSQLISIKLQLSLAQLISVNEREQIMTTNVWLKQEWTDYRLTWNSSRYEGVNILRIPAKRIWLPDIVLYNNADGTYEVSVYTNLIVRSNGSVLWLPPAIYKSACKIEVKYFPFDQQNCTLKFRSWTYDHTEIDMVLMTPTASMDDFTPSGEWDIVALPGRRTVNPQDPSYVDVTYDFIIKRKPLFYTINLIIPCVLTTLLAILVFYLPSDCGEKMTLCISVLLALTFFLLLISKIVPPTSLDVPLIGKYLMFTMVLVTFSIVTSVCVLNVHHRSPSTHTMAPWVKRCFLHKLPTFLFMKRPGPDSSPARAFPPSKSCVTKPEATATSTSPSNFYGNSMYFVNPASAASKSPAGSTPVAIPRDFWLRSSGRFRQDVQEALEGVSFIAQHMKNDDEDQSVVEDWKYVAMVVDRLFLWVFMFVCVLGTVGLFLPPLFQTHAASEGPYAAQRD
Chain of Neuronal acetylcholine receptor; alpha3/beta4 (P32297 whole entry): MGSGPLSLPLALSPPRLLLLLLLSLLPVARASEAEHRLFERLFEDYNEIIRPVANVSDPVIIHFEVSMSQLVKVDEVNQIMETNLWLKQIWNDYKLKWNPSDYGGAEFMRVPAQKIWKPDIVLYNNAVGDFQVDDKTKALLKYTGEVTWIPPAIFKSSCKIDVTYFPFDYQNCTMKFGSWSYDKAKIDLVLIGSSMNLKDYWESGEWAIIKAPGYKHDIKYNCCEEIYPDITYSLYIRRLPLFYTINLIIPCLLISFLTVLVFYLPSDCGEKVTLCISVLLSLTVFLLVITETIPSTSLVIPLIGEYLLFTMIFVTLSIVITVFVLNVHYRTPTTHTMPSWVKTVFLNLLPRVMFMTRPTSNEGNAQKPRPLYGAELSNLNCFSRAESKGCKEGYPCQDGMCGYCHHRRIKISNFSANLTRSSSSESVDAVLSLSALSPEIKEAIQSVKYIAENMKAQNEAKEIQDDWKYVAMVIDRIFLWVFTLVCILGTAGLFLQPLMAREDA

In the case of O=c1cccc2n1CC13CNCC21C3 (racemic) [CYCLOPROPYLCYFUSINE], the Ki [1] is reported as > 500 nM, the Ki [2] is reported as > 0.5 µM and the Ki [3] is reported as 144 nM.

For O=c1cccc2n1CC1CNCC21 (racemic) [CYFUSINE], the Ki [1] was > 500 nM, the Ki [2] was > 0.5 µM and the Ki [3] was 16 nM.

Molecule O=c1cccc2n1C[C@@H]1CNC[C@H]2C1 [CYTISINICLINE] has a Ki [1] of 1560 nM, a Ki [2] of 5.82 µM and a Ki [3] of 0.43 nM.

Reference: ChEMBL document CHEMBL1143925, “Deconstructing cytisine: The syntheses of (+/-)-cyfusine and (+/-)-cyclopropylcyfusine, fused ring analogs of cytisine” (Bioorg Med Chem Lett, 2008)
